Measured values as given in patent publication US6602274B1, “Targeted transcutaneous cancer therapy” (Light Sciences Corporation, priority 1999, dated 2003).

Columns and labels:
[1] = systemic administration, clinical use; cited from earlier work
[2] = system: colon carcinoma tumor mass; assay: Photodynamic therapy of a solid tumor with implanted LED light source probes after oral ALA; format: in vivo, human
Source text: A patient in the terminal phase of recurrent malignant colon cancer presented with a protruding colon carcinoma tumor mass of approximately 500 grams and approximately 13 cm in diameter, which extended through the patient's dermis. Due to the advanced state of the patient's disease and due to the highly vascularized nature of this tumor mass, resection was not feasible. Further, this large tumor mass presented a significant amount of pain and discomfort to the patient, as well as greatly impairing the patient's ability to lie flat.
Six separate light source probes, each including a linear array of LEDs, were surgically implanted in this large human tumor using standard surgical procedures. An intensity of about 25-30 mW of light from each light source probe (650 nm peak wavelength) was delivered to the tumor for 40 hours following oral administration to the patient of a single dose of an (ALA) photosensitizer agent (60 mg/kg). However, after 18 hours, two of the light source probes became unseated from the tumor mass and were disconnected from the electrical power supply used to energize the LEDs on each probe. The total fluence delivered to the tumor bed during this single extended duration treatment was in excess of 20,000 Joules. […] The extent of this PDT induced necrotic effect in a large volume of tumor tissue was totally unexpected and has not been described before in any PDT studies in subjects in vivo or clinically. Over the course of four weeks following PDT, the necrotic tumor tissue was debrided from the patient resulting in a reduction of approximately 500 grams of tumor tissue.
The fluence rate employed in this Example represented about 150-180 mW/cm^2, with a total fluence more than 20,000 Joules. The preferable fluence rate contemplated more broadly by the present invention is between about 5 mW/cm^2 and about 100 mW/cm^2, more preferably, between about 10 mW/cm^2 and about 75 mW/cm^2, and most preferably, between about 15 mW/cm^2 and about 50 mW/cm^2.

virus-infected T cells = virus-infected T cells treated with BPD, exposed to light; Blood Cells 18:129-40 (1992); cited from earlier work

## CCOC(=O)C1=Cc2c3nc(cc4nc(cc5[n-]c(cc6[n-]c2c(C)c6CC)c(C)c5CC)C(C)=C4CC)[C@@H](C)[C@]13CC.[Cl-].[Cl-].[Sn] (racemic) [PURLYTIN]
[1]
  duration of general dermal photosensitivity / sensitization of the skin to light: at least several weeks

## NCC(=O)CCC(=O)O [ALA, aminolevulinic acid]
[2]; one patient, single oral dose 60 mg/kg, 650 nm light, 40 hours of PDT, total fluence in excess of 20,000 Joules
  Extensive tumor necrosis, radius around each of the light source probes: up to 5 cm
[2]; one patient, single oral dose 60 mg/kg, after 40 hours of PDT
  collateral damage to surrounding normal tissue: no collateral damage
[2]; over the course of four weeks following PDT, tumor mass of approximately 500 grams
  reduction of tumor tissue (necrotic tumor tissue debrided): approximately 500 grams

## Oc1cccc(-c2c3nc(c(-c4cccc(O)c4)c4ccc([nH]4)c(-c4cccc(O)c4)c4nc(c(-c5cccc(O)c5)c5ccc2[nH]5)CC4)C=C3)c1 [FOSCAN]
[1]
  duration of general dermal photosensitivity / sensitization of the skin to light: at least several weeks

## benzoporphyrin derivatives [BPD]
virus-infected T cells
  effect on T cell membrane after exposure to light: holes developed in the T cell membrane and increased in size until the membrane completely decomposed

## sodium porfimer [PHOTOPHRIN]
[1]
  duration of general dermal photosensitivity / sensitization of the skin to light: up to six weeks
